ChEMBL document CHEMBL4665642, “Anticancer profile of newly synthesized BRAF inhibitors possess 5-(pyrimidin-4-yl)imidazo[2,1-b]thiazole scaffold” (Bioorg Med Chem, 2019)

Tests used:
Format in all cases: functional
Details in all cases: read-out: Activity
HCT-15 = assay: Cytotoxicity against human HCT-15 cells assessed as cell viability at 10 uM incubated for 48 hrs by sulforhodamine B assay relative to control
SK-OV-3 = assay: Cytotoxicity against human SK-OV-3 cells assessed as cell viability at 10 uM incubated for 48 hrs by sulforhodamine B assay relative to control
HL-60(TB) = assay: Cytotoxicity against human HL-60(TB) cells assessed as cell viability at 10 uM incubated for 48 hrs by sulforhodamine B assay relative to control
PC-3 = assay: Cytotoxicity against human PC-3 cells assessed as cell viability at 10 uM incubated for 48 hrs by sulforhodamine B assay relative to control
OVCAR-4 = assay: Cytotoxicity against human OVCAR-4 cells assessed as cell viability at 10 uM incubated for 48 hrs by sulforhodamine B assay relative to control
SK-MEL-28 = assay: Cytotoxicity against human SK-MEL-28 cells assessed as cell viability at 10 uM incubated for 48 hrs by sulforhodamine B assay relative to control
RPMI-8226 = assay: Cytotoxicity against human RPMI-8226 cells assessed as cell viability at 10 uM incubated for 48 hrs by sulforhodamine B assay relative to control
NCI-H460 = assay: Cytotoxicity against human NCI-H460 cells assessed as cell viability at 10 uM incubated for 48 hrs by sulforhodamine B assay relative to control
K562 = assay: Cytotoxicity against human K562 cells assessed as cell viability at 10 uM incubated for 48 hrs by sulforhodamine B assay relative to control
ACHN = assay: Cytotoxicity against human ACHN cells assessed as cell viability at 10 uM incubated for 48 hrs by sulforhodamine B assay relative to control
OVCAR-8 = assay: Cytotoxicity against human OVCAR-8 cells assessed as cell viability at 10 uM incubated for 48 hrs by sulforhodamine B assay relative to control
DU-145 = assay: Cytotoxicity against human DU-145 cells assessed as cell viability at 10 uM incubated for 48 hrs by sulforhodamine B assay relative to control
NCI-H322M = assay: Cytotoxicity against human NCI-H322M cells assessed as cell viability at 10 uM incubated for 48 hrs by sulforhodamine B assay relative to control
NCI-H23 = assay: Cytotoxicity against human NCI-H23 cells assessed as cell viability at 10 uM incubated for 48 hrs by sulforhodamine B assay relative to control
SNB-75 = assay: Cytotoxicity against human SNB-75 cells assessed as cell viability at 10 uM incubated for 48 hrs by sulforhodamine B assay relative to control
NCI/ADR-RES = assay: Cytotoxicity against human NCI/ADR-RES cells assessed as cell viability at 10 uM incubated for 48 hrs by sulforhodamine B assay relative to control
M14 = assay: Cytotoxicity against human M14 cells assessed as cell viability at 10 uM incubated for 48 hrs by sulforhodamine B assay relative to control
SR = assay: Cytotoxicity against human SR cells assessed as cell viability at 10 uM incubated for 48 hrs by sulforhodamine B assay relative to control
SN12C = assay: Cytotoxicity against human SN12C cells assessed as cell viability at 10 uM incubated for 48 hrs by sulforhodamine B assay relative to control
MDA-MB-435 = assay: Cytotoxicity against human MDA-MB-435 cells assessed as cell viability at 10 uM incubated for 48 hrs by sulforhodamine B assay relative to control
IGROV-1 = assay: Cytotoxicity against human IGROV-1 cells assessed as cell viability at 10 uM incubated for 48 hrs by sulforhodamine B assay relative to control
HOP-62 = assay: Cytotoxicity against human HOP-62 cells assessed as cell viability at 10 uM incubated for 48 hrs by sulforhodamine B assay relative to control
HOP-92 = assay: Cytotoxicity against human HOP-92 cells assessed as cell viability at 10 uM incubated for 48 hrs by sulforhodamine B assay relative to control
786-0 = assay: Cytotoxicity against human 786-0 cells assessed as cell viability at 10 uM incubated for 48 hrs by sulforhodamine B assay relative to control
NCI-H226 = assay: Cytotoxicity against human NCI-H226 cells assessed as cell viability at 10 uM incubated for 48 hrs by sulforhodamine B assay relative to control
CCRF-CEM = assay: Cytotoxicity against human CCRF-CEM cells assessed as cell viability at 10 uM incubated for 48 hrs by sulforhodamine B assay relative to control
MDA-MB-231 = assay: Cytotoxicity against human MDA-MB-231 cells assessed as cell viability at 10 uM incubated for 48 hrs by sulforhodamine B assay relative to control
SF-268 = assay: Cytotoxicity against human SF-268 cells assessed as cell viability at 10 uM incubated for 48 hrs by sulforhodamine B assay relative to control
SNB-19 = assay: Cytotoxicity against human SNB-19 cells assessed as cell viability at 10 uM incubated for 48 hrs by sulforhodamine B assay relative to control
BT-549 = assay: Cytotoxicity against human BT-549 cells assessed as cell viability at 10 uM incubated for 48 hrs by sulforhodamine B assay relative to control
KM12 = assay: Cytotoxicity against human KM12 cells assessed as cell viability at 10 uM incubated for 48 hrs by sulforhodamine B assay relative to control
TK-10 = assay: Cytotoxicity against human TK-10 cells assessed as cell viability at 10 uM incubated for 48 hrs by sulforhodamine B assay relative to control
LOX IMVI = assay: Cytotoxicity against human LOX IMVI cells assessed as cell viability at 10 uM incubated for 48 hrs by sulforhodamine B assay relative to control
A549 = assay: Cytotoxicity against human A549 cells assessed as cell viability at 10 uM incubated for 48 hrs by sulforhodamine B assay relative to control
HCT-29 = assay: Cytotoxicity against human […] cells assessed as cell viability at 10 uM incubated for 48 hrs by sulforhodamine B assay relative to control
CAKI-1 = assay: Cytotoxicity against human CAKI-1 cells assessed as cell viability at 10 uM incubated for 48 hrs by sulforhodamine B assay relative to control
MDA-MB-468 = assay: Cytotoxicity against human MDA-MB-468 cells assessed as cell viability at 10 uM incubated for 48 hrs by sulforhodamine B assay relative to control
COLO 205 = assay: Cytotoxicity against human COLO 205 cells assessed as cell viability at 10 uM incubated for 48 hrs by sulforhodamine B assay relative to control
MCF7 = assay: Cytotoxicity against human MCF7 cells assessed as cell viability at 10 uM incubated for 48 hrs by sulforhodamine B assay relative to control
SF-295 = assay: Cytotoxicity against human SF-295 cells assessed as cell viability at 10 uM incubated for 48 hrs by sulforhodamine B assay relative to control
OVCAR-3 = assay: Cytotoxicity against human OVCAR-3 cells assessed as cell viability at 10 uM incubated for 48 hrs by sulforhodamine B assay relative to control

O=S(=O)(NCCNc1nccc(-c2c(-c3cccc(F)c3)nc3sccn23)n1)c1ccc(Br)cc1
viability at 10 µM (HCT-15): 29.2% | viability at 10 µM (SK-OV-3): 77.3% | viability at 10 µM (HL-60(TB)): 90.5% | viability at 10 µM (PC-3): 51% | viability at 10 µM (OVCAR-4): 47% | viability at 10 µM (SK-MEL-28): 69.1% | viability at 10 µM (RPMI-8226): 58% | viability at 10 µM (NCI-H460): 27.8% | viability at 10 µM (K562): 38.7% | viability at 10 µM (ACHN): 30.2% | viability at 10 µM (OVCAR-8): 45.5% | viability at 10 µM (DU-145): 52.5% | viability at 10 µM (NCI-H322M): 61% | viability at 10 µM (NCI-H23): 72.6% | viability at 10 µM (SNB-75): 75.3% | viability at 10 µM (NCI/ADR-RES): 61.8% | viability at 10 µM (M14): 52.3% | viability at 10 µM (SR): 31.7% | viability at 10 µM (SN12C): 42.9% | viability at 10 µM (MDA-MB-435): 21.3% | viability at 10 µM (IGROV-1): 8.47% | viability at 10 µM (HOP-62): 83.3% | viability at 10 µM (HOP-92): 76.7% | viability at 10 µM (786-0): 50.6% | viability at 10 µM (NCI-H226): 41.2% | viability at 10 µM (CCRF-CEM): 51% | viability at 10 µM (MDA-MB-231): 69.7% | viability at 10 µM (SF-268): 53% | viability at 10 µM (SNB-19): 59.3% | viability at 10 µM (BT-549): 63.2% | viability at 10 µM (KM12): 42.5% | viability at 10 µM (TK-10): 68.8% | viability at 10 µM (LOX IMVI): 38.5% | viability at 10 µM (A549): 34.1% | viability at 10 µM (HCT-29): 28.2% | viability at 10 µM (CAKI-1): 35.1% | viability at 10 µM (MDA-MB-468): 78.3% | viability at 10 µM (COLO 205): 36.4% | viability at 10 µM (MCF7): 23.5% | viability at 10 µM (SF-295): 58.7% | viability at 10 µM (OVCAR-3): 62.4%

O=C(NCCCNc1nccc(-c2c(-c3cccc(F)c3)nc3sccn23)n1)c1ccc(F)cc1
viability at 10 µM (HCT-15): 65.2% | viability at 10 µM (SK-OV-3): 66.3% | viability at 10 µM (HL-60(TB)): 110% | viability at 10 µM (PC-3): 76.2% | viability at 10 µM (OVCAR-4): 81.6% | viability at 10 µM (SK-MEL-28): 106% | viability at 10 µM (RPMI-8226): 87.2% | viability at 10 µM (NCI-H460): 95.2% | viability at 10 µM (K562): 75.7% | viability at 10 µM (ACHN): 74.9% | viability at 10 µM (OVCAR-8): 68.4% | viability at 10 µM (DU-145): 81.2% | viability at 10 µM (NCI-H322M): 96.3% | viability at 10 µM (NCI-H23): 105% | viability at 10 µM (SNB-75): 83.9% | viability at 10 µM (NCI/ADR-RES): 78.8% | viability at 10 µM (M14): 85.3% | viability at 10 µM (SR): 99.8% | viability at 10 µM (SN12C): 75.8% | viability at 10 µM (MDA-MB-435): 72.6% | viability at 10 µM (IGROV-1): 49.4% | viability at 10 µM (HOP-62): 119% | viability at 10 µM (HOP-92): 111% | viability at 10 µM (786-0): 62.5% | viability at 10 µM (NCI-H226): 69% | viability at 10 µM (CCRF-CEM): 75.9% | viability at 10 µM (MDA-MB-231): 120% | viability at 10 µM (SF-268): 71% | viability at 10 µM (SNB-19): 89% | viability at 10 µM (BT-549): 85.2% | viability at 10 µM (KM12): 89% | viability at 10 µM (TK-10): 95.9% | viability at 10 µM (LOX IMVI): 79.5% | viability at 10 µM (A549): 76.3% | viability at 10 µM (HCT-29): 60.8% | viability at 10 µM (CAKI-1): 73% | viability at 10 µM (MDA-MB-468): 59.2% | viability at 10 µM (COLO 205): 64.7% | viability at 10 µM (MCF7): 71.9% | viability at 10 µM (SF-295): 97.2% | viability at 10 µM (OVCAR-3): 74.1%
